Experimental data reported in US20240124418A1 (BioTheryX, Inc., priority 2020, published 2024).

Molecular target: T1, PDE4B (Homo sapiens, UniProt Q07343)
T1 construct: endogenous in cells; host or cells: A549
Assay: Protein degradation assay, western blot, PDE4B in A549 cells
Type: cell-based
Settings: 24 h treatment, 'as high as about' = upper value for the group, read-out: PDE4B degradation relative to DMSO
Experimental: Example B2. Protein Degradation Assay
A549 cells were grown in RPMI 1640 media supplemented with 10% fetal bovine serum, streptomycin, and penicillin. The cells were plated in 6-well plates at 300,000 cells/well in the growth media. After overnight incubation, the cells were treated with DMSO (control) or a compound at predetermined concentrations (e.g., 10 nM, 100 nM, 1 μM, 3 μM, or 10 μM) for 24 h at 37° C. under 5% CO2. Whole cell extracts were prepared using an immunoprecipitation (IP) lysis buffer. The cells were washed once in PBS, and the cell pellets were resuspended in the IP lysis buffer and incubated for 15 min on ice. Cells debris was removed by centrifugation and the cleared whole cell lysates were transferred to new tubes for further analysis.
For a western blot analysis, the whole cell protein extracts were separated on 4-12% SDS-polyacrylamide gels, transferred to nitrocellulose, and probed with primary antibodies. Membranes were subsequently washed and probed with IRDYE® secondary antibodies. The signals were detected using an ODYSSEY® Imaging System. The antibodies used in the assay included anti-PDE4B antibody; anti-PDE4D antibodies (top, bottom, and short isoform); β-actin mouse monoclonal antibody; IRDYE® 680RD goat anti-rabbit antibody; and IRDYE® 800CW goat anti-mouse antibody. The compounds provided herein are PDE4 protein degraders.

T1 sequence (Q07343 whole entry): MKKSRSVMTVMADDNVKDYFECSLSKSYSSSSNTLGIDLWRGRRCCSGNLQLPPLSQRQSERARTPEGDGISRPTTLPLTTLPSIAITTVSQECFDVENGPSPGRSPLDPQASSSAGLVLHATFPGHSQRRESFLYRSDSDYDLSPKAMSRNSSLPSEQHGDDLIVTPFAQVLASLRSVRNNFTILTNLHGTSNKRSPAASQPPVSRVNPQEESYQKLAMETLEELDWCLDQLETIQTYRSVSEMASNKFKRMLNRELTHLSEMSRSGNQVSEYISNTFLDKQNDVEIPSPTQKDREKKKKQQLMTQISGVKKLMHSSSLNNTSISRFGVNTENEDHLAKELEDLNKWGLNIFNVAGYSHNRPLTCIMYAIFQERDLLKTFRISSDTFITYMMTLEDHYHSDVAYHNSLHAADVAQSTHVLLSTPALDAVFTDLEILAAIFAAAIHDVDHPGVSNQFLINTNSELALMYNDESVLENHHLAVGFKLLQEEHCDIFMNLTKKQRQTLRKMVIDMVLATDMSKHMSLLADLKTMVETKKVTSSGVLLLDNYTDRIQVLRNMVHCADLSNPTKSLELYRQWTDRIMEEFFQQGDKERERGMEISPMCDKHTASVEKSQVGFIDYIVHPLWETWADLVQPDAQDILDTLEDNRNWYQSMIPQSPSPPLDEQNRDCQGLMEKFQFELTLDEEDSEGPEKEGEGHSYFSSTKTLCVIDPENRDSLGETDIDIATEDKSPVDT

| Dmax | Structure (SMILES) |
| --- | --- |
| ≤ 70% | CCOc1cc([C@@H](CS(C)(=O)=O)N2C(=O)c3cccc(NC(=O)CCCCCCCCCCCNc4cccc5c4C(=O)N(C4CCC(=O)NC4=O)C5=O)c3C2=O)ccc1OC (stereo partly drawn) [Compound A6, 12-((2-(2,6-Dioxopiperidin-3-yl)-1,3-dioxoisoindolin-4-yl)amino)-N-(2-((S)-1-(3-ethoxy-4-methoxyphenyl)-2-(methylsulfonyl)ethyl)-1,3-dioxoisoindolin-4-yl)dodecanamide] |
| ≤ 70% | CCOc1cc([C@@H](CS(C)(=O)=O)N2C(=O)c3cccc(NC(=O)CCCCCCCCNCc4ccc(OCc5scc6c5CN(C5CCC(=O)NC5=O)C6=O)cc4)c3C2=O)ccc1OC (stereo partly drawn) [Compound A12, 9-((4-((5-(2,6-Dioxopiperidin-3-yl)-4-oxo-5,6-dihydro-4H-thieno[3,4-c]pyrrol-1-yl)methoxy)benzyl)amino)-N-(2-((S)-1-(3-ethoxy-4-methoxyphenyl)-2-(methylsulfonyl)ethyl)-1,3-dioxoisoindolin-4-yl)nonanamide] |
| ≤ 70% | CCOc1cc([C@@H](CS(C)(=O)=O)N2C(=O)c3cc(CCCCCCCCCCCCN4CCC(c5cc(F)cc6c5CN(C5CCC(=O)NC5=O)C6=O)CC4)cc(NC(C)=O)c3C2=O)ccc1OC (stereo partly drawn) [Compound A14, N-(6-(12-(4-(2-(2,6-Dioxopiperidin-3-yl)-6-fluoro-1-oxoisoindolin-4-yl)piperidin-1-yl)dodecyl)-2-((S)-1-(3-ethoxy-4-methoxyphenyl)-2-(methylsulfonyl)ethyl)-1,3-dioxoisoindolin-4-yl)acetamide] |
| ≤ 70% | CCOc1cc([C@@H](CS(C)(=O)=O)N2C(=O)c3cccc(NC(=O)CCCCCCCCC(=O)N[C@H](C(=O)N4C[C@H](O)C[C@H]4C(=O)NCc4ccc(-c5scnc5C)cc4)C(C)(C)C)c3C2=O)ccc1OC [Compound A60, N^1-(2-((S)-1-(3-Ethoxy-4-methoxyphenyl)-2-(methylsulfonyl)ethyl)-1,3-dioxoisoindolin-4-yl)-N^10—((S)-1-((2S,4R)-4-hydroxy-2-((4-(4-methylthiazol-5-yl)benzyl)-carbamoyl)pyrrolidin-1-yl)-3,3-dimethyl-1-oxobutan-2-yl)decanediamide] |
| ≤ 70% | O=C1CCC(N2Cc3c(C#CC4CCN(C(=O)CCCCOc5cc(C(=O)Nc6c(Cl)cncc6Cl)ccc5OC(F)F)CC4)cccc3C2=O)C(=O)N1 (centres unmarked) [Compound B2, N-(3,5-Dichloropyridin-4-yl)-4-(difluoromethoxy)-3-((5-(4-((2-(2,6-dioxopiperidin-3-yl)-1-oxoisoindolin-4-yl)ethynyl)piperidin-1-yl)-5-oxopentyl)oxy)benzamide] |
| ≤ 70% | O=C1CCC(N2Cc3cc(C4CCN(CCCCCCCOc5cc(C(=O)Nc6c(Cl)cncc6Cl)ccc5OC(F)F)CC4)c(F)cc3C2=O)C(=O)N1 (centres unmarked) [Compound B3, N-(3,5-Dichloropyridin-4-yl)-4-(difluoromethoxy)-3-((7-(4-(2-(2,6-dioxopiperidin-3-yl)-6-fluoro-1-oxoisoindolin-5-yl)piperidin-1-yl)heptyl)oxy)benzamide] |
| ≤ 70% | O=C1CCC(N2C(=O)c3cccc(NCCCCCCCOc4cc(C(=O)Nc5c(Cl)cncc5Cl)ccc4OC(F)F)c3C2=O)C(=O)N1 (centres unmarked) [Compound B6, N-(3,5-Dichloropyridin-4-yl)-4-(difluoromethoxy)-3-((7-((2-(2,6-dioxopiperidin-3-yl)-1,3-dioxoisoindolin-4-yl)amino)heptyl)oxy)benzamide] |
| ≤ 70% | O=C1CCC(N2Cc3c(cc(F)cc3C3CCN(CCCCCCCCCCCCOc4cc(C(=O)Nc5c(Cl)cncc5Cl)ccc4OC(F)F)CC3)C2=O)C(=O)N1 (centres unmarked) [Compound B7, N-(3,5-Dichloropyridin-4-yl)-4-(difluoromethoxy)-3-((12-(4-(2-(2,6-dioxo-piperidin-3-yl)-6-fluoro-1-oxoisoindolin-4-yl)piperidin-1-yl)dodecyl)oxy)benzamide] |
